These results are taken from patent US8039453B2, “Vinca derivatives” (priority 2006, dated 2011).

Structures are written as SMILES. Where two headings read alike, the source gives them in different places. Bounds are passed on as bounds.

As usually defined, the GI50 is the concentration at which growth is held to half of that of the control.

The test system of the experiment is HeLa S-3 human cervical carcinoma cell line. As to the kind of experiment: HeLa GI50 determination (SRB growth inhibition). It counts as cell-based. The conditions noted are these: HeLa S3, 48 h, read-out: HeLa Cells GI50. The procedure: A. HeLa GI50 Determinations
Growth inhibition (GI50) values were measured on the human cervical carcinoma cell line, HeLa S-3, which were selected for growth on plastic. The HeLa cell assay was based on the description of Skehan et al., J. Natl. Cancer Inst., 82:1107-12 (1990), which is hereby incorporated by reference in its entirety. HeLa cells were plated at 2×10^4 cells/well in 96 well plates. One day later, a control plate was fixed by the addition of TCA to 5%. After five rinses with tap water, the plate was air-dried and stored at 4° C. Test compounds were added to the remaining plates at 10-fold dilutions. Two days later, all plates were fixed as described above. Cells were then stained by the addition of 100 μL per well of 0.4% sulforhodamine B (SRB) in 1% acetic acid for 30 min at 4° C. Wells were then quickly rinsed 5× with 1% acetic acid and allowed to air dry. The SRB was then solubilized by the addition of 100 μL per well of unbuffered 10 mM Tris base. Dye was quantified by measuring absorbance at 490 nm on a Molecular Devices microplate reader. Growth inhibition was calculated according to the following equation: GI=100×(T−T0)/(C−T0), where the optical density (OD) of the test well after 2 days of treatment was T, the OD of the wells in the control plate on day 0 was T0 and C was the OD of untreated wells. Plots of percent growth inhibition versus inhibitor concentration were used to determine the GI50.

Setting [1] is: HeLa S-3 cells, 2 days of treatment, sulforhodamine B staining.

For `CCc1ccc2[nH]c3c(c2c1)CCN1CC(C(C)(F)F)C[C@@H](C1)C[C@]3(C(=O)OC)c1cc2c(cc1OC)N(C)[C@H]1[C@@](O)(C(=O)OC)[C@H](OC(C)=O)[C@]3(CC)C=CCN4CC[C@]21[C@@H]43` (stereo partly drawn) [Example 3, 12′-Ethyl-4′-deoxy-20′,20′-diflurovincaleukoblastine], the 50% growth inhibitory concentration (GI50) under setting [1] was > 1000 nM.

For `CC[C@]12C=CCN3CC[C@@]4(c5cc([C@@]6(C(=O)OC)C[C@H]7CC(C(C)(F)F)CN(CCc8c6[nH]c6ccc(-c9ccccc9)cc86)C7)c(OC)cc5N(C)[C@H]4[C@@](O)(C(=O)OC)[C@@H]1OC(C)=O)[C@@H]32` (stereo partly drawn) [Example 6, 12′-Phenyl-4′-deoxy-20′,20′-diflurovincaleukoblastine], the GI50 stood at 23100 nM. Turning to `CC[C@]12C=CCN3CC[C@@]4(c5cc([C@@]6(C(=O)OC)C[C@H]7CC(C(C)(F)F)CN(CCc8c6[nH]c6ccc(SC)cc86)C7)c(OC)cc5N(C)[C@H]4[C@@](O)(C(=O)OC)[C@@H]1OC(C)=O)[C@@H]32` (stereo partly drawn) [Example 12, 12′-(Methylsulfanyl)-4′-deoxy-20′,20′-diflurovincaleukoblastine], the GI50 under setting [1] is 93 nM.
